# Values joined by “and” are separate entries in the source; they are usually repeats but may differ in a detail not shown here. Equal entries are not always repeated.
# Key:
# [1] = Particle size distribution of crystallized TMX (Malvern Mastersizer); format: physicochemical
# Description: An aqueous solution of TMX at a concentration of 11 mg/ml was prepared. The respective portion of TMX and water was added to an appropriately sized vessel and heated to 60° C. to dissolve the TMX. Once dissolved, phage particles having binding domains selected to bind to TMX were added to the achieve target loading set forth in the Table 1 below. The solution was allowed to cool to room temperature and aged until crystallization was observed. Crystalline products were separated from the liquor by filtration and particle size distribution was measured using a Malvern Mastersizer.
# [2] = Crystal shape of TMX crystallized with phage particles (optical and electron microscopy); format: physicochemical; settings: TMX 11 mg/ml, phage loading C/2 to C (C=37 mg/ml), FIG. 1 and FIG. 2
# Description: An aqueous solution of TMX at a concentration of 11 mg/ml was prepared. The respective portion of TMX and water was added to an appropriately sized vessel and heated to 60° C. to dissolve the TMX. […] Phage loading was a C, C/2, C/10, C/25, and C/100. The solution was allowed to cool to room temperature and aged until crystallization was observed. Crystalline products were separated from the liquor by filtration and characterized by microscopy.
# [3] = average of the three measurements, TMX 11 mg/ml aqueous, cooled from 60° C.
# [4] = single measurements, TMX 11 mg/ml aqueous, dissolved at 60° C., cooled to room temperature, crystals filtered, listed as TMX control
smiles,measurement,setting,value
"CN1COCN(Cc2cnc(Cl)s2)/C1=N\[N+](=O)[O-] [TMX, Thiamethoxam]",Size Dv (0.5) average,[1]; [3],23.1057 μm
same,Size Dv (0.95) average,[1]; [3],54.11 μm
same,Particle size of TMX crystallized in the presence of phage particles versus control,"[1]; phage particles having binding domains selected to bind to TMX, C/25 and C/100",marked reduction
same,Size Dv (0.5),[1]; [4],23.378 μm and 22.048 μm and 23.891 μm
same,Size Dv (0.95),[1]; [4],52.18 μm and 54.16 μm and 55.74 μm
same,Crystal shape,[2],more bi-pyramidal shape

# Reference: patent US20150175974A1, “PRODUCING SOLIDS AND RELATED MOTHER LIQUORS” (Syngenta Participations AG, priority 2012, published 2015)
